Source: ChEMBL document CHEMBL3739335, “Phosphonooxymethyl Prodrug of Triptolide: Synthesis, Physicochemical Characterization, and Efficacy in Human Colon Adenocarcinoma and Ovarian Cancer Xenografts” (J Med Chem, 2015)

Key:
[1] = Half life of the compound
[2] = target: T1, Alkaline phosphatase, tissue-nonspecific isozyme (Bos taurus, UniProt P09487); test: Drug level in glycine buffer treated with Sodium (((5bS,6aS,7aR,8R,8aS,9aS,9bS,10aS,10bS)-8a-Isopropyl-10b-methyl-3-oxo-1,2,3,5,5b,6,6a,8,8a,9a,9b,10b-dodecahydrotris-(oxireno)[2',3':4b,5;'',3'':6,7;2''',3''':8a,9]phenanthro[1,2-c]furan-8-yl)oxy)methyl Phosphate at pH 9.8 in presence of bovine intestinal mucosal alkaline phosphatase; conditions: cattle, isolated protein
T1 sequence (P09487 whole entry): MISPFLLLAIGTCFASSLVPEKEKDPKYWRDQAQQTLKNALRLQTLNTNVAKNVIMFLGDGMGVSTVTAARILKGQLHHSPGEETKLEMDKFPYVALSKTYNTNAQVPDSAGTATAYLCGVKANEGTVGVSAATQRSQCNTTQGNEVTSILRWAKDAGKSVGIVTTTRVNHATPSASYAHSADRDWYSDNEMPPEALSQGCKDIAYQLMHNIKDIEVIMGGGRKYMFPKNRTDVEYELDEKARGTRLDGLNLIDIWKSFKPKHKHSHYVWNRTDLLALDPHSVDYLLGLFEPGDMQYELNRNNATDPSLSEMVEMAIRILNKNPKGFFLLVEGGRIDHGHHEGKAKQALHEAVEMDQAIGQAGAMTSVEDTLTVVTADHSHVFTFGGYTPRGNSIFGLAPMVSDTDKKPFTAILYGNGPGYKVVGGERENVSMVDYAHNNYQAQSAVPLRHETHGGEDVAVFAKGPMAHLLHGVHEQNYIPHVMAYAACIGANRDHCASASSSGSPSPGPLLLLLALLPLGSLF

For `C=O` [FORMALDEHYDE], the half-life [1] was 1.5 min and the Drug metabolism [2] was “metabolite_detected”.
For `CC(C)[C@]12O[C@H]1[C@@H]1O[C@]13[C@]1(O[C@H]1C[C@H]1C4=C(CC[C@@]13C)C(=O)OC4)[C@@H]2O` [TRIPTOLIDE], the Drug metabolism [2] was “metabolite_detected”.
